Measured values as given in article PMC7321301, “Characteristics of New Peptides GQLGEHGGAGMG, GEHGGAGMGGGQFQPV, EQGFLPGPEESGR, RLARAGLAQ, YGNPVGGVGH, and GNPVGGVGHGTTGT as Inhibitors of Enzymes Involved in Metabolic Syndrome and Antimicrobial Potential” (Molecules, 2020).
No end group written: not given here.

How the values were obtained:
pancreatic lipase = target: T1, pancreatic lipase (Homo sapiens, UniProt P16233); assay: Pancreatic lipase inhibitory activity (pNPA) and kinetics; format: biochemical; conditions: mean ± SD, triplicate
T1 sequence (P16233 17-465): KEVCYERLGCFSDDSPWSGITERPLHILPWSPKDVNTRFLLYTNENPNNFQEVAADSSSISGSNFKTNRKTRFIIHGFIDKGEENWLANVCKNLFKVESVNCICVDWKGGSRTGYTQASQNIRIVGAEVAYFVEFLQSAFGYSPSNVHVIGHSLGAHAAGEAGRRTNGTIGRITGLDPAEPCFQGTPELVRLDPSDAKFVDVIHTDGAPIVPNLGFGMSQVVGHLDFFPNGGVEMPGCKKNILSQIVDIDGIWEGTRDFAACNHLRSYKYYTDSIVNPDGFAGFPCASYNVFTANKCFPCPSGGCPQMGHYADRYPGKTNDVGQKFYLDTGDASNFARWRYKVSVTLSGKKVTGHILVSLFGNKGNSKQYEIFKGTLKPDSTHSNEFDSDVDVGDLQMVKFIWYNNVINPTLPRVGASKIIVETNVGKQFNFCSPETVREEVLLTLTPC
Procedure: (§1) For all inhibitory activity, IC50 was calculated. The IC50 value defined as the concentration of the extract inhibiting 50% of the enzyme activity was determined by measuring the enzyme inhibitory activity and peptide contents in each sample. The IC50 value was calculated from the plotted graph of the inhibition activity for the five different peptide concentrations.
Lipase inhibitory activity was determined with the method described by Jakubczyk et al.. The final volume of the reaction mixture was 150 μL (2 μL of the enzyme, 5 μL of the sample, 142 μL of 100 mM potassium phosphate buffer, pH 7.5, and 1 μL of a 100 mM p-nitrophenyl acetate (pNPA) solution in dimethyl sulfoxide (DMSO). Changes in absorbance at […] were measured using BioTek Microplate Readers.
(§2) Substrate solutions (5.0, 10.0, 15.0, and 20.0 mM) were prepared and used to determine the Michaelis constant (Km), the inhibition constant (Ki), and the maximum velocity (Vmax) of enzymes. The kinetic parameters were evaluated by Lineweaver–Burk’s method. The reaction conditions were the same as in the enzyme inhibitory activity assay.

COX-2 = target: T2, COX-2 (Homo sapiens, UniProt P35354); assay: COX-2 inhibitory activity (COX Activity Assay kit) and kinetics; format: biochemical; conditions: mean ± SD, triplicate
T2 construct: purchased Cayman Chemical 760151
T2 sequence (P35354 18-604): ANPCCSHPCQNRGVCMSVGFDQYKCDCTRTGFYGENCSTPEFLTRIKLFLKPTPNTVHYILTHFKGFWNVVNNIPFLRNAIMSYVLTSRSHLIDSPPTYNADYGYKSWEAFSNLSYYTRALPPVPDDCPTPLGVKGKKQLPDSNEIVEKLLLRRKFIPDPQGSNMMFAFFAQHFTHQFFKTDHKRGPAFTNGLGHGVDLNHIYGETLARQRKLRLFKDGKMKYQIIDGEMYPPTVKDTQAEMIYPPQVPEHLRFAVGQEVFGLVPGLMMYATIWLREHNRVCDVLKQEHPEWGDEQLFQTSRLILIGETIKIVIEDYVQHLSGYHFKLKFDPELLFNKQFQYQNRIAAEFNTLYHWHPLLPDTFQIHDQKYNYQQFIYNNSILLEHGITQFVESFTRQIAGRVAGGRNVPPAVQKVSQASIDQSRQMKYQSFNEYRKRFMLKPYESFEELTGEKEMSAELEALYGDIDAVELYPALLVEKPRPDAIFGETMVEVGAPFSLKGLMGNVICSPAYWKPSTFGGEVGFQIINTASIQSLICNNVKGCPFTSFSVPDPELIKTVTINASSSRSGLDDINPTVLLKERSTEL
Procedure: as §1
The effect of the peptide on COX-1 and COX-2 was measured using the COX Activity Assay kit from Cayman Chemical (Item No. 760151, Ann Arbor, MI, USA). COX activity was determined according to the instructions provided with the kit. The enzyme activity was assayed by calorimetric measurement of the appearance of oxidized N,N,N′,N′-Tetramethyl-p-phenylenediamine (TMPD) at 590 nm using BioTek Microplate Readers (Epoch™ 2 BioTek, Bad Friedrichshall, Germany).
as §2

HECa10 cells [1] = assay: MTT test; format: cell-based, murine; conditions: 24-h incubation, 0.1–100 µg/mL
Procedure: (§3) The study was conducted according to the procedure described by Rokicki et al.. HECa10 cells after 80–90% confluence were trypsinized (3 min, 37 °C), centrifuged (300 g, 5 min), counted, and plated in 96-well plates at a concentration of 1 × 10^4 cells/well. Then, 24 h after seeding, cells were washed with phosphate-buffered saline (PBS) solution and culture medium (Dulbecco’s Modified Eagle Medium (DMEM) + 10% fetal bovine serum (FBS) + antibiotics, all from Life Technologies, Warsaw, Poland) was added with test factors in concentrations: 0.1; 1; 5; 10; 50; 100 µg/mL). Then, 24 h after addition of the compounds, proliferation tests (MTT, NR, LDH) were performed. The color intensity was determined using a Fluostar Omega microplate reader. Results are presented as the mean ± SD of 3 independent experiments (n = 12).
Briefly, the cells were seeded in a 96-well culture plate at a concentration of 1 × 10^4 cells/well. Then, 24 h after seeding, the cells were rinsed twice with PBS (Life Technologies, Warsaw, Poland) and resuspended in fresh growth medium. Peptide fractions were added at concentrations of 0 (control), 0.1, 1, 5, 10, 50, and 100 µg/mL. After 24 h incubation with the proteins, the assessment of cell metabolic activity based on MTT tests was performed (MTT kit, Sigma Aldrich, Poznań, Poland). The absorbance was measured at 570 nm with a FLUOstar Omega reader (BMG Labtech GmbH, Ortenberg, Germany). The results are presented as the percentage of the control values (mean ± SD). Each assay was performed in triplicate (n = 18).

HECa10 cells [2] = assay: Neutral red (NR) test; format: cell-based, murine; conditions: 24-h incubation, 0.1–100 µg/mL
Procedure: as §3
The cells were seeded in a 96-well culture plate at a concentration of 1 × 10^4 cells/well. Then, 24 h after seeding, the cells were rinsed twice with PBS (Life Technologies, Poland) and resuspended in fresh growth medium. Peptide fractions were added at concentrations of 0 (control), 0.1, 1, 5, 10, 50, and 100 µg/mL. After 24 h of incubation with the proteins, the uptake of the neutral red (NR kit, Sigma Aldrich, Poznań, Poland,) was assessed. The absorption was measured at a wavelength of 540 nm with the background cutoff at 690 nm (FLUOstar Omega, BMG Labtech GmbH, Ortenberg, Germany). The results are presented as the percentage of the control values (mean ± SD). Each assay was performed in triplicate (n = 18).

EQGFLPGPEESGR [ER-13, EQGFLPGPEESGR]
IC50 (pancreatic lipase): 54.8 µM | IC50 (COX-2): 3.07 µM | MTT test, HECa10 cell count compared to control (HECa10 cells [1]): no statistically significant differences | NR test, HECa10 cell count compared to control (HECa10 cells [2]): no statistically significant differences

GNPVGGVGHGTTGT [GT-14, GNPVGGVGHGTTGT]
IC50 (pancreatic lipase): 86.1 µM | IC50 (COX-2): 3.66 µM | MTT test, HECa10 cell count compared to control (HECa10 cells [1]): no statistically significant differences | NR test, HECa10 cell count compared to control (HECa10 cells [2]): no statistically significant differences

GQLGEHGGAGMG [GG-12, GQLGEHGGAGMG]
IC50 (pancreatic lipase): 56.6 µM | IC50 (COX-2): 15.7 µM | MTT test, HECa10 cell count compared to control (HECa10 cells [1]): no statistically significant differences | NR test, HECa10 cell count compared to control (HECa10 cells [2]): no statistically significant differences

RLARAGLAQ [RQ-9, RLARAGLAQ]
IC50 (pancreatic lipase): 102 µM | IC50 (COX-2): 4.99 µM | MTT test, HECa10 cell count compared to control (HECa10 cells [1]): no statistically significant differences | NR test, HECa10 cell count compared to control (HECa10 cells [2]): no statistically significant differences

YGNPVGGVGH [YH-10, YGNPVGGVGH]
IC50 (pancreatic lipase): 107 µM | IC50 (COX-2): 16.2 µM | MTT test, HECa10 cell count compared to control (HECa10 cells [1]): declined statistically significantly | NR test, HECa10 cell count compared to control (HECa10 cells [2]): declined statistically significantly

GEHGGAGMGGGQFQPV [GV-16, GEHGGAGMGGGQFQPV]
IC50 (pancreatic lipase): 41.9 µM | IC50 (COX-2): 30.2 µM | MTT test, HECa10 cell count compared to control (HECa10 cells [1]): no statistically significant differences | NR test, HECa10 cell count compared to control (HECa10 cells [2]): no statistically significant differences
